{
  "source": "ChEMBL document CHEMBL1136764",
  "about": "“N6-cyclopentyl-2-(3-phenylaminocarbonyltriazene-1-yl)adenosine (TCPA), a very selective agonist with high affinity for the human adenosine A1 receptor” (J Med Chem, 2003)",
  "data": [
    {"target": "T1, Adenosine receptor A2a (Homo sapiens, UniProt P29274)", "T1 sequence (P29274 whole entry)": "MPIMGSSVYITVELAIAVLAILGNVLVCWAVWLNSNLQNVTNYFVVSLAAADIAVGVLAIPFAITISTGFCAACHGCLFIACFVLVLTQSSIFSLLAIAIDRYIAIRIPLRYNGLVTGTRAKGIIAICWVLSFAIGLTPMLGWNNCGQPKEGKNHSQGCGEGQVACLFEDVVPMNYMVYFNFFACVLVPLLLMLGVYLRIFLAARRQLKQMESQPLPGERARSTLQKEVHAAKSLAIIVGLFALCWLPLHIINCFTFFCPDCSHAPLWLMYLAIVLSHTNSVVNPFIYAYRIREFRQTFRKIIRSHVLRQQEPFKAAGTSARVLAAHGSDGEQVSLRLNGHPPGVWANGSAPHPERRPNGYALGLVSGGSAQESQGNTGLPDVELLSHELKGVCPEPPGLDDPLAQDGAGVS", "experiment": "Binding affinity for human Adenosine A2A receptor using [3H]ZM-241385", "units": {"Ki": "nM"}, "values": [
      {"smiles": "Nc1nc(/N=N/c2ccccc2)nc2c1ncn2[C@@H]1O[C@H](CO)[C@@H](O)[C@H]1O", "Ki": 180},
      {"smiles": "Nc1nc(/N=N/NC(=O)c2ccccc2)nc2c1ncn2[C@@H]1O[C@H](CO)[C@@H](O)[C@H]1O", "Ki": 1000},
      {"smiles": "NC(=O)/N=N/Nc1nc(N)c2ncn([C@@H]3O[C@H](CO)[C@@H](O)[C@H]3O)c2n1", "Ki": 88},
      {"smiles": "CCNC(=O)/N=N/Nc1nc(N)c2ncn([C@@H]3O[C@H](CO)[C@@H](O)[C@H]3O)c2n1", "Ki": 19},
      {"smiles": "Nc1nc(N=O)nc2c1ncn2[C@@H]1O[C@H](CO)[C@@H](O)[C@H]1O", "Ki": 720},
      {"smiles": "Nc1nc(/N=N/NC(=O)NC2CCCCC2)nc2c1ncn2[C@@H]1O[C@H](CO)[C@@H](O)[C@H]1O", "Ki": 25},
      {"smiles": "Nc1nc(/N=N/NC(=O)Nc2ccccc2)nc2c1ncn2[C@@H]1O[C@H](CO)[C@@H](O)[C@H]1O", "Ki": 25}
    ]},
    {"target": "T2, Adenosine receptor A1 (Homo sapiens) (UniProt P30542)", "T2 sequence (whole entry)": "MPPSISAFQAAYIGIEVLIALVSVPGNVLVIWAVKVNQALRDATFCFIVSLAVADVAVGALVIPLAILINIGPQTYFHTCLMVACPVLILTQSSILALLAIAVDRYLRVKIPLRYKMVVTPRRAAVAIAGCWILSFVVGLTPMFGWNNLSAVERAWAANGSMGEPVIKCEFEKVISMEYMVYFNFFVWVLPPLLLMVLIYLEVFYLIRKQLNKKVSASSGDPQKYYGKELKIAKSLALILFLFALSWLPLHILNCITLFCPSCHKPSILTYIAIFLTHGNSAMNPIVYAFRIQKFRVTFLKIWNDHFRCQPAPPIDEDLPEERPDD", "experiment": "Percent displacement of [3H]DPCPX from human adenosine A1 receptor at 10 uM", "units": {"Displacement": "%"}, "values": [
      {"smiles": "Nc1nc(N=O)nc2c1ncn2[C@@H]1O[C@H](CO)[C@@H](O)[C@H]1O", "Displacement": 40},
      {"smiles": "Nc1nc(/N=N/NC(=O)Oc2ccccc2)nc2c1ncn2C1O[C@H](CO)[C@@H](O)[C@H]1O", "note": "(stereo partly specified)", "Displacement": 43}
    ]},
    {"target": "T3, Adenosine receptor A3 (Homo sapiens) (UniProt P0DMS8)", "T3 sequence (whole entry)": "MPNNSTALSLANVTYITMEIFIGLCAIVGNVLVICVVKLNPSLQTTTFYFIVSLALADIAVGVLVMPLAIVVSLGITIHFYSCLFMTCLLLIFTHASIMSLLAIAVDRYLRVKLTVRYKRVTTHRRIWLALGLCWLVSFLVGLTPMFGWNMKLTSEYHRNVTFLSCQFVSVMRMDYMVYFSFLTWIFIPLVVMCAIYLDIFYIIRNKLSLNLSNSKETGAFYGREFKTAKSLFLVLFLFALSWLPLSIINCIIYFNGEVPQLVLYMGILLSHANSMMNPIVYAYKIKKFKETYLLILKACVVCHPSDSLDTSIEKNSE", "experiment": "Binding affinity for human adenosine A3 receptor using [125 I]-IABMECA; insoluble", "values": [
      {"smiles": "Nc1nc(/N=N/NC(=O)Nc2cccc(C(F)(F)F)c2)nc2c1ncn2C1O[C@H](CO)[C@@H](O)[C@H]1O", "note": "(stereo partly specified)", "Other": "Insoluble"}
    ]},
    {"target": "T4, Adenosine receptor A2b (Homo sapiens) (UniProt P29275)", "T4 sequence (whole entry)": "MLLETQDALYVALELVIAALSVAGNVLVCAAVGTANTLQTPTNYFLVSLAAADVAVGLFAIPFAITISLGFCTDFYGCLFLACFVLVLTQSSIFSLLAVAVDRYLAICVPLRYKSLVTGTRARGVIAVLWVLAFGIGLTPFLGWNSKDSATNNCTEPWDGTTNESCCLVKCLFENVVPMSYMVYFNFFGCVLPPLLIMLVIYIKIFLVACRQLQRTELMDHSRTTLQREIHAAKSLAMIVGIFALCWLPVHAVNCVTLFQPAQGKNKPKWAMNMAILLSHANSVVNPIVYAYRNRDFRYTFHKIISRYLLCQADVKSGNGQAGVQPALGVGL", "experiment": "In vitro binding affinity towards human adenosine A2B receptor by [3H]DPCPX displacement at 10 uM.", "units": {"Displacement": "%"}, "values": [
      {"smiles": "O=C(N/N=N/c1nc(NC2CCCC2)c2ncn([C@@H]3O[C@H](CO)[C@@H](O)[C@H]3O)c2n1)Nc1ccccc1", "Displacement": 10},
      {"smiles": "NC(=O)/N=N/Nc1nc(N)c2ncn([C@@H]3O[C@H](CO)[C@@H](O)[C@H]3O)c2n1", "Displacement": 9},
      {"smiles": "CCNC(=O)/N=N/Nc1nc(N)c2ncn([C@@H]3O[C@H](CO)[C@@H](O)[C@H]3O)c2n1", "Displacement": 15},
      {"smiles": "O=C(N/N=N/c1nc(Nc2ccccc2)c2ncn([C@@H]3O[C@H](CO)[C@@H](O)[C@H]3O)c2n1)Nc1ccccc1", "Displacement": 9},
      {"smiles": "Nc1nc(/N=N/NC(=O)NC2CCCCC2)nc2c1ncn2[C@@H]1O[C@H](CO)[C@@H](O)[C@H]1O", "Displacement": 6},
      {"smiles": "Nc1nc(/N=N/NC(=O)Nc2ccccc2)nc2c1ncn2[C@@H]1O[C@H](CO)[C@@H](O)[C@H]1O", "Displacement": 54},
      {"smiles": "Nc1nc(/N=N/NC(=O)Oc2ccccc2)nc2c1ncn2C1O[C@H](CO)[C@@H](O)[C@H]1O", "note": "(stereo partly specified)", "Displacement": 6}
    ]},
    {"target": "T5, Adenosine receptor A3 (Homo sapiens, UniProt P0DMS8)", "T5 sequence (P0DMS8 whole entry)": "T3 sequence (whole entry)", "experiment": "Inhibition of [125 I]-IABMECA binding to human adenosine A3 receptor", "units": {"Ki": "nM"}, "values": [
      {"smiles": "O=C(N/N=N/c1nc(NC2CCCC2)c2ncn([C@@H]3O[C@H](CO)[C@@H](O)[C@H]3O)c2n1)Nc1ccccc1", "Ki": 600},
      {"smiles": "O=C(N/N=N/c1nc(Nc2ccccc2)c2ncn([C@@H]3O[C@H](CO)[C@@H](O)[C@H]3O)c2n1)Nc1ccccc1", "Ki": 90}
    ]},
    {"target": "T6, Adenosine receptor A1 (Homo sapiens, UniProt P30542)", "T6 sequence (P30542 whole entry)": "T2 sequence (whole entry)", "units": {"Ki": "nM"}, "description": "In vitro binding affinity towards human adenosine A1 receptor by [3H]DPCPX displacement.", "values": [
      {"smiles": "Nc1nc(/N=N/NC(=O)c2ccccc2)nc2c1ncn2[C@@H]1O[C@H](CO)[C@@H](O)[C@H]1O", "Ki": 1900},
      {"smiles": "O=C(N/N=N/c1nc(NC2CCCC2)c2ncn([C@@H]3O[C@H](CO)[C@@H](O)[C@H]3O)c2n1)Nc1ccccc1", "Ki": 2.8},
      {"smiles": "NC(=O)/N=N/Nc1nc(N)c2ncn([C@@H]3O[C@H](CO)[C@@H](O)[C@H]3O)c2n1", "Ki": 140},
      {"smiles": "CCNC(=O)/N=N/Nc1nc(N)c2ncn([C@@H]3O[C@H](CO)[C@@H](O)[C@H]3O)c2n1", "Ki": 45},
      {"smiles": "O=C(N/N=N/c1nc(Nc2ccccc2)c2ncn([C@@H]3O[C@H](CO)[C@@H](O)[C@H]3O)c2n1)Nc1ccccc1", "Ki": 430},
      {"smiles": "Nc1nc(/N=N/NC(=O)NC2CCCCC2)nc2c1ncn2[C@@H]1O[C@H](CO)[C@@H](O)[C@H]1O", "Ki": 5.8},
      {"smiles": "Nc1nc(/N=N/NC(=O)Nc2ccccc2)nc2c1ncn2[C@@H]1O[C@H](CO)[C@@H](O)[C@H]1O", "Ki": 6.1}
    ]},
    {"target": "T4, Adenosine receptor A2b (Homo sapiens)", "experiment": "Binding affinity for human adenosine A2B receptor using [3H]DPCPX at 10 uM as percent displacement", "units": {"Displacement": "%"}, "values": [
      {"smiles": "Nc1nc(/N=N/c2ccccc2)nc2c1ncn2[C@@H]1O[C@H](CO)[C@@H](O)[C@H]1O", "Displacement": 11},
      {"smiles": "Nc1nc(/N=N/NC(=O)c2ccccc2)nc2c1ncn2[C@@H]1O[C@H](CO)[C@@H](O)[C@H]1O", "Displacement": 8},
      {"smiles": "Nc1nc(N=O)nc2c1ncn2[C@@H]1O[C@H](CO)[C@@H](O)[C@H]1O", "Displacement": 14}
    ]},
    {"target": "T1, Adenosine receptor A2a", "units": {"Ki": "nM"}, "description": "Tested for binding affinity towards human adenosine A2A receptor using [3H]ZM-241385 as radioligand", "values": [
      {"smiles": "O=C(N/N=N/c1nc(NC2CCCC2)c2ncn([C@@H]3O[C@H](CO)[C@@H](O)[C@H]3O)c2n1)Nc1ccccc1", "Ki": 210},
      {"smiles": "O=C(N/N=N/c1nc(Nc2ccccc2)c2ncn([C@@H]3O[C@H](CO)[C@@H](O)[C@H]3O)c2n1)Nc1ccccc1", "Ki": 24.3}
    ]},
    {"target": "T2, Adenosine receptor A1 (Homo sapiens)", "experiment": "Relative potency for human adenosine A1 receptor (Ki value)", "values": [
      {"smiles": "O=C(N/N=N/c1nc(NC2CCCC2)c2ncn([C@@H]3O[C@H](CO)[C@@H](O)[C@H]3O)c2n1)Nc1ccccc1", "Relative potency": 1}
    ]},
    {"target": "T1, Adenosine receptor A2a", "experiment": "Percent displacement of [3H]ZM-241,385 from human adenosine A2A receptor at 10 uM", "units": {"Displacement": "%"}, "values": [
      {"smiles": "Nc1nc(/N=N/NC(=O)Oc2ccccc2)nc2c1ncn2C1O[C@H](CO)[C@@H](O)[C@H]1O", "note": "(stereo partly specified)", "Displacement": 38.9}
    ]},
    {"target": "T5, Adenosine receptor A3", "experiment": "Binding affinity for human Adenosine A3 receptor using [125 I]-IABMECA", "units": {"Ki": "nM"}, "values": [
      {"smiles": "Nc1nc(/N=N/c2ccccc2)nc2c1ncn2[C@@H]1O[C@H](CO)[C@@H](O)[C@H]1O", "Ki": 110},
      {"smiles": "Nc1nc(/N=N/NC(=O)c2ccccc2)nc2c1ncn2[C@@H]1O[C@H](CO)[C@@H](O)[C@H]1O", "Ki": 190},
      {"smiles": "NC(=O)/N=N/Nc1nc(N)c2ncn([C@@H]3O[C@H](CO)[C@@H](O)[C@H]3O)c2n1", "Ki": 209},
      {"smiles": "CCNC(=O)/N=N/Nc1nc(N)c2ncn([C@@H]3O[C@H](CO)[C@@H](O)[C@H]3O)c2n1", "Ki": 113},
      {"smiles": "Nc1nc(N=O)nc2c1ncn2[C@@H]1O[C@H](CO)[C@@H](O)[C@H]1O", "Ki": 580},
      {"smiles": "Nc1nc(/N=N/NC(=O)NC2CCCCC2)nc2c1ncn2[C@@H]1O[C@H](CO)[C@@H](O)[C@H]1O", "Ki": 63},
      {"smiles": "Nc1nc(/N=N/NC(=O)Nc2ccccc2)nc2c1ncn2[C@@H]1O[C@H](CO)[C@@H](O)[C@H]1O", "Ki": 110}
    ]},
    {"target": "Adenosine receptors; A1 & A3 (Homo sapiens) (UniProt P30542+P0DMS8)", "experiment": "Selectivity for adenosine A1 and A3 receptors", "format": "protein assay", "values": [
      {"smiles": "O=C(N/N=N/c1nc(NC2CCCC2)c2ncn([C@@H]3O[C@H](CO)[C@@H](O)[C@H]3O)c2n1)Nc1ccccc1", "Selectivity": 214}
    ]},
    {"target": "T6, Adenosine receptor A1", "experiment": "Inhibition of cAMP formation in CHO cells expressing human adenosine A1 receptor", "format": "cell-based", "units": {"IC50": "nM"}, "values": [
      {"smiles": "O=C(N/N=N/c1nc(NC2CCCC2)c2ncn([C@@H]3O[C@H](CO)[C@@H](O)[C@H]3O)c2n1)Nc1ccccc1", "IC50": 1.5}
    ]},
    {"target": "T3, Adenosine receptor A3 (Homo sapiens)", "experiment": "Relative potency for human adenosine A3 receptor (Ki value)", "values": [
      {"smiles": "O=C(N/N=N/c1nc(NC2CCCC2)c2ncn([C@@H]3O[C@H](CO)[C@@H](O)[C@H]3O)c2n1)Nc1ccccc1", "Relative potency": 1}
    ]},
    {"target": "T2, Adenosine receptor A1 (Homo sapiens)", "experiment": "Binding affinity for human adenosine A1 receptor using [3H]DPCPX; insoluble", "values": [
      {"smiles": "Nc1nc(/N=N/NC(=O)Nc2cccc(C(F)(F)F)c2)nc2c1ncn2C1O[C@H](CO)[C@@H](O)[C@H]1O", "note": "(stereo partly specified)", "Other": "Insoluble"}
    ]},
    {"target": "T4, Adenosine receptor A2b (Homo sapiens)", "experiment": "Percent displacement of [3H]DPCPX from human adenosine A2B receptor at 10 uM; insoluble", "values": [
      {"smiles": "Nc1nc(/N=N/NC(=O)Nc2cccc(C(F)(F)F)c2)nc2c1ncn2C1O[C@H](CO)[C@@H](O)[C@H]1O", "note": "(stereo partly specified)", "Other": "Insoluble"}
    ]},
    {"target": "T1, Adenosine receptor A2a", "experiment": "Binding affinity for human adenosine A2A receptor using [3H]ZM-241385; insoluble", "values": [
      {"smiles": "Nc1nc(/N=N/NC(=O)Nc2cccc(C(F)(F)F)c2)nc2c1ncn2C1O[C@H](CO)[C@@H](O)[C@H]1O", "note": "(stereo partly specified)", "Other": "Insoluble"}
    ]}
  ]
}
